Laboratory results as given in article PMC11898650, “Morpholine-Substituted Tetrahydroquinoline Derivatives as Potential mTOR Inhibitors: Synthesis, Computational Insights, and Cellular Analysis” (Cancers, 2025).

Key:
[1] = system: triple-negative breast cancer (MDA-MB-231) cell line; experiment: MTT antiproliferative assay, MDA-MB-231; assay type: cell-based, human; details: 48 h; for IC50: Homo sapiens
Description: (§1) To evaluate the antiproliferative activity of the synthesized tetrahydroquinoline derivatives, three distinct human cancer cell lines were selected: breast cancer (MCF-7), lung cancer (A-549), and triple-negative breast cancer (MDA-MB-231). Furthermore, the synthesized compounds were tested on the VERO cell line to assess their potential toxicity. The VERO cell line, commonly derived from the kidney of an adult African green monkey, is widely used for toxicity studies. To evaluate the toxicity of the synthesized compounds, this cell line was utilized in the present study. The VERO cells were cultured using […] medium. The F-12 Ham’s medium was used to cultivate the lung cancer (A-549) cell lines. DMEM was used to cultivate the cell lines for breast cancer (MCF-7) and triple-negative breast cancer (MDA-MB-231). Because it feeds the cell line, 5% fatal bovine serum (FBS) was used to make the whole medium. To further protect the cell line from contamination, 0.5% pen–strep (penicillin + streptomycin) was added to all the mediums. All of these cell lines were cultivated in sterile, vented T-75 and/or T-25 flasks that were kept at 37 °C and supplied with 5% CO2. All of the compounds’ stock solutions were prepared in DMSO, and dilutions were made in the appropriate media so that the 96-well plates’ final DMSO content was not greater than 0.1%. First, each drug was tested in triplicate against every cell line at a 25 µM dose. […] On the first day, 1 × 10^4 cells were planted, and 24 h later, the chemicals were added. The MTT dye was added after the compounds and cells had been cultured for 48 h. After four hours, the MTT dye was taken out of the wells. Each well received 100 µL of DMSO to dissolve the formazan crystals that had formed as a result of the living cells, and absorbance at 570 nm was measured.

VERO cell line = experiment: MTT toxicity assay, VERO; assay type: cell-based, African green monkey; details: Chlorocebus sabaeus, 48 h, VERO normal cells
Description: as §1

[2] = system: breast cancer (MCF-7) cell line; experiment: MTT antiproliferative assay, MCF-7; assay type: cell-based; details: Homo sapiens, MCF7, 48 h
Description: as §1

[3] = system: lung cancer (A-549) cell line; experiment: MTT antiproliferative assay, A549; assay type: cell-based, human; details: 48 h; for IC50: Homo sapiens
Description: as §1

A549 lung cancer cells = experiment: Annexin V-FITC/PI apoptosis assay by flow cytometry; assay type: cell-based, human; details: 48 h
Description: A549 lung cancer cells were seeded in six-well plates and cultured in F-12 Ham’s medium supplemented with 5% FBS, 0.5% penicillin–streptomycin, and maintained in a 5% CO2 atmosphere at 37 °C for 24 h. […] Each condition was maintained in duplicate, with DMSO serving as the vehicle control, while 5-fluorouracil and Everolimus were used as positive controls. The treated cells, along with the DMSO control group, were incubated for 48 h. After incubation, the media were removed, and 1 mL of trypsin was added to each well for approximately one minute, followed by neutralization with 4 mL of fresh medium. Subsequent steps were carried out following the protocol of the Annexin V-FITC apoptosis detection kit (Ref No: BMS500FI, Lot No: 264043; Invitrogen, Waltham, MA, USA). The contents of each well were collected and transferred to centrifuge tubes, followed by centrifugation at 1000 RPM for 8 min. After removing the supernatant, the cell pellets were washed with PBS and subjected to another centrifugation step. The pellets were then resuspended in 1 mL of 1× binding buffer from the Annexin V-FITC apoptosis detection kit and incubated in the dark for 15–20 min. Subsequently, 500 µL of this cell suspension was transferred to individual plastic flow cytometry tubes. Each tube was supplemented with 10 µL of propidium iodide (PI) and 5 µL of Annexin V-FITC conjugate. The tubes were then incubated in the dark for 10 min before analyzing cell apoptosis using flow cytometry.

SMILES	IC50 [1] [µM]	IC50 (VERO cell line) [µM]	IC50 [2] [µM]	IC50 [3] [µM]	apoptosis (early and last phase combined) (A549 lung cancer cells; A549, 3 µM) [%]	apoptosis (early and last phase combined) (A549 lung cancer cells; A549, 6 µM) [%]	MDA-MB-231 (IC50 µM) [1]	A549 (IC50 µM) [3]	Necrosis (A549 lung cancer cells; A549, 3 µM) [%]	Early Apoptosis (A549 lung cancer cells; A549, 6 µM) [%]	Late Apoptosis (A549 lung cancer cells; A549, 6 µM) [%]	Necrosis (A549 lung cancer cells; A549, 6 µM) [%]
O=C(Nc1ccc2c(c1)N(C(=O)N1CCCCC1)CCC2)c1cc(C(F)(F)F)cc(C(F)(F)F)c1 [Compound 10h, N-(1-(Piperidine-1-carbonyl)-1,2,3,4-tetrahydroquinolin-7-yl)-3,5 bis(trifluoromethyl)benzamide]	1.29 ± 0.032	> 25	0.087 ± 0.007	3.36 ± 0.71	–	–	–	–	–	–	–	–
O=C(Nc1ccc2c(c1)N(C(=O)C1CCOCC1)CCC2)c1ccc(OC(F)(F)F)cc1 [Compound 10a, N-(1-(Tetrahydro-2H-pyran-4-carbonyl)-1,2,3,4-tetrahydroquinolin-7-yl)-4-(trifluoromethoxy)benzamide]	8.16 ± 0.33	> 25	4.34 ± 0.12	1.06 ± 0.02	–	–	–	–	–	–	–	–
O=C(Nc1ccc2c(c1)N(C(=O)C1CCCCC1)CCC2)c1ccc(OC(F)(F)F)cc1 [Compound 10b, N-(1-(Cyclohexanecarbonyl)-1,2,3,4-tetrahydroquinolin-7-yl)-4-(trifluoromethoxy)benzamide]	6.37 ± 0.19	9.82 ± 0.08	> 25	4.72 ± 0.11	–	–	–	–	–	–	–	–
O=C(Nc1ccc2c(c1)N(C(=O)N1CCOCC1)CCC2)c1cc(F)cc(C(F)(F)F)c1 [Compound 10d, 3-Fluoro-N-(1-(morpholine-4-carbonyl)-1,2,3,4-tetrahydroquinolin-7-yl)-5-(trifluoromethyl)benzamide]	1.003 ± 0.008	> 25	0.58 ± 0.11	0.062 ± 0.01	29.35	77.66	–	–	–	–	–	–
O=C(Nc1ccc2c(c1)N(C(=O)N1CCCCC1)CCC2)c1cc(F)cc(F)c1 [Compound 10f, 3,5-Difluoro-N-(1-(piperidine-1-carbonyl)-1,2,3,4-tetrahydroquinolin-7-yl)benzamide]	> 25	> 25	4.47 ± 0.013	> 25	–	–	no activity	no activity	–	–	–	–
O=c1[nH]cc(F)c(=O)[nH]1 [Compound 5-FU, 5-fluorouracil, reference compound]	3.39 ± 0.37	> 25	0.72 ± 0.03	0.28 ± 0.008	–	–	–	–	–	–	–	–
O=C(Nc1ccc2c(c1)N(C(=O)N1CCCCC1)CCC2)c1cc(F)cc(C(F)(F)F)c1 [Compound 10g, 3-Fluoro-N-(1-(piperidine-1-carbonyl)-1,2,3,4-tetrahydroquinolin-7-yl)-5-(trifluoromethyl)benzamide]	> 25	> 25	2.5 ± 0.16	0.68 ± 0.13	–	–	–	–	–	–	–	–
CO[C@H]1C[C@@H]2CC[C@@H](C)[C@@](O)(O2)C(=O)C(=O)N2CCCC[C@H]2C(=O)O[C@H]([C@H](C)C[C@@H]2CC[C@@H](OCCO)[C@H](OC)C2)CC(=O)[C@H](C)/C=C(\C)[C@@H](O)[C@@H](OC)C(=O)[C@H](C)C[C@H](C)/C=C/C=C/C=C/1C [Everolimus, reference compound]	7.76 ± 0.37	> 25	5.86 ± 0.07	0.09 ± 0.01	–	–	–	–	–	–	–	–
O=C(Nc1ccc2c(c1)N(C(=O)N1CCOCC1)CCC2)c1cc(C(F)(F)F)cc(C(F)(F)F)c1 [Compound 10e, N-(1-(Morpholine-4-carbonyl)-1,2,3,4-tetrahydroquinolin-7-yl)-3,5-bis(trifluoromethyl)benzamide]	0.63 ± 0.02	8.86 ± 0.03	2.89 ± 0.013	0.033 ± 0.003	75.7	–	–	–	0.05	70.00	20.37	0.01
